How the values were obtained:
HepG2 cells [1] = experiment: rescue of CH004-induced loss of viability by cell death inhibitors (CellTiter 96); type: cell-based, human; details: 100 µM DFO, 48 h or 72 h
Experimental: To measure cell viability and cytotoxicity, HepG2, HEK293T, Huh-7, H22, Panc-28, HCT116 and MDA-MB-231 cells were seeded at a density of ~ 2 × 10^4 cells per well in 96-well plates (Coring, NY, USA) for one day, followed by incubation with DMSO or various concentrations of tested compound for indicated times. Then, the cells were collected to measure the cell viability using the CellTiter 96® Aqueous One Solution Cell Proliferation Assay (Promega, G3581) according to the standard protocols.
(§1) Figure S15. The mode of actions for CH004 in cells. […] Indicated HEK293T stable cell lines were treated with CH004 at a concentration of 10 µM for 24 h, and the cell viability was then measured using the CellTiter96® Aqueous One Solution Cell Proliferation Assay (Promega). Means ± SDs (n=3). (B-C) CH004 or erastin triggers ferroptosis in mouse embryonic fibroblasts (MEF). WT MEF cells were treated with CH004 or erastin at indicated concentrations in the presence or the absence of 500 µM DFO for 24 h before measuring the lipid ROS with 2 μM BODIPY® 581/591 C11 (Materials and methods). […] The cell viability was accordingly quantified using the CellTiter96® Aqueous One Solution Cell Proliferation Assay (Promega) and the results were shown as percentages of DMSO (control, 100%). […]

HepG2 cells [2] = experiment: lipid ROS (BODIPY 581/591 C11, flow cytometry); type: cell-based, human; details: 24 h; for accumulation of lipid ROS in HepG2 cells: up to 15 μM
Experimental: (§2) To detect lipid peroxidation upon treatment with CH004, HepG2 cells or mouse embryonic fibroblasts (MEF) were seeded in 12-well plates with ~ 1.8 × 10^5 cells per well for 24 h. After treatment with the inhibitor for another 24 h, cells were stained with BODIPY® 581/591 C11 (Invitrogen) for 1 h at a final concentration of 2 μM at 37 °C[57]. The cells were then resuspended in an appropriate amount of PBS after being washed once with PBS. Lipid peroxidation, i.e., lipid ROS, was analyzed by detection of the fluorescence using an LSR Fortessa flow cytometer. The data were recorded at 530/30 nm (green fluorescent) and 670/30 nm (red fluorescent) wavelengths after excitation at 488 nm. A minimum of 20000 events was used for the analysis. All the experiments were independently repeated twice in triplicate.
Figure S15. The mode of actions for CH004 in cells. […] Indicated HEK293T stable cell lines were treated with CH004 at a concentration of 10 µM for 24 h, and the cell viability was then measured using the CellTiter96® Aqueous One Solution Cell Proliferation Assay (Promega). Means ± SDs (n=3). (B-C) CH004 or erastin triggers ferroptosis in mouse embryonic fibroblasts (MEF). WT MEF cells were treated with CH004 or erastin at indicated concentrations in the presence or the absence of 500 µM DFO for 24 h before measuring the lipid ROS with 2 μM BODIPY® 581/591 C11 (Materials and methods). […] Erastin at micromolar concentrations were incubated with HepG2 cells for 24 h before measuring the lipid ROS (see above and Materials and methods). […] Means ± SDs (n=3). […] CH004 or erastin at a concentration of 20 µM was incubated with HepG2 cells for 48 h or 72 h in the presence or the absence of 100 µM DFO. The cell viability was accordingly quantified using the CellTiter96® Aqueous One Solution Cell Proliferation Assay (Promega) and the results were shown as percentages of DMSO (control, 100%). Means ± SDs (n=3). All the experiments were independently repeated at least twice and one representative result is present. Table S1 The inhibitory effects of CH004 on purified hCBS, hCSE and hDDC.

HepG2 cells [3] = experiment: cell viability (CellTiter 96 Aqueous One); type: cell-based, human; details: 20 μM, 48 h or 72 h
Experimental: Fig. 4 CH004 arrests the cell cycle at the S phase. a CH004 reduces the cell viability of HEK293T and HepG2 cells. HEK293T or HepG2 cells were treated with indicated concentrations of CH004 for 24 h before the cell number was analyzed using the CellTiter96® Aqueous One Solution Cell Proliferation Assay (Promega, Materials and Methods). The means at each concentration of one representative experiment are shown as percentages of DMSO (control, 100%). Means ± SDs (n = 3). b Overexpression of hCBS or knock-down of hCBS counteracts the growth inhibition exerted by CH004 in HEK293T cells. Indicated HEK293T stable cell lines were treated with the CH004 or DMSO for 24 h. Then, the cell viability was quantified with the CellTiter 96® Aqueous One Solution Cell Proliferation Assay under the standard protocol (Promega). The means at each concentration are shown as percentages of their respective DMSO controls (100%). Means ± SDs (n = 3). The efficacy for CBS overexpression and knock-down in HEK293T cells was determined by Western blotting using an anti-CBS antibody (3E1, 1:2000; Abnova). c CH004 induces cell death in HEK293T and HepG2 cells. […] The means of percentages of dead cells (DMSO, 100%) from three independent samples are shown in d. Means ± SDs (n = 3). e, f Pharmacological inhibition or genetic knock-down of hCBS in HEK293T cells arrests the cell cycle at S phase. HEK293T cells were incubated with indicated compounds for 12 h, and the DNA content was quantified with propidium iodide to analyze the cell cycle distribution by flow cytometry (e). The cell cycle distributions for HEK293T-shNT and HEK293T-shCBS cells were accordingly analyzed and are shown in f. One representative diagram is shown for each condition. The mean percentages of various cell phases from three independent samples are shown in the respective right panels. Means ± SDs (n = 3). […]
Figure S15. […] Indicated HEK293T stable cell lines were treated with CH004 at a concentration of 10 µM for 24 h, and the cell viability was then measured using the CellTiter96® Aqueous One Solution Cell Proliferation Assay (Promega). […]

[4] = tested on: mouse embryonic fibroblasts (MEF); experiment: lipid ROS (BODIPY 581/591 C11, flow cytometry); type: cell-based; details: low micromolar concentrations, 24 h
Experimental: as §2
as §1, with “(MEF).” for “(MEF). WT MEF cells were treated with CH004 or erastin at indicated concentrations in the presence or the absence of 500 µM DFO for 24 h before measuring the lipid ROS with 2 μM BODIPY® 581/591 C11 (Materials and methods).”

SMILES: CC(=O)N(O)CCCCCNC(=O)CCC(=O)N(O)CCCCCNC(=O)CCC(=O)N(O)CCCCCN [deferoxamine]
- rescue of cell death caused by 20 µM CH004 (HepG2 cells [1]): partially rescues
- reduction of lipid ROS caused by 10 μM CH004 (HepG2 cells [2]; 500 μM deferoxamine, HepG2): almost completely reduced

SMILES: CCOc1ccccc1-n1c(C(C)N2CCN(C(=O)COc3ccc(Cl)cc3)CC2)nc2ccccc2c1=O (stereo not drawn) [erastin, reference compound]
- cell death in HepG2 cells (HepG2 cells [3]): did not trigger
- accumulation of lipid ROS in HepG2 cells (HepG2 cells [2]): did not trigger
- accumulation of lipid ROS in HepG2 cells (HepG2 cells [2]; listed as Erastin): does not induce ferroptosis
- induction of ferroptosis (lipid ROS) in MEF [4]: ~ 3 fold

— article PMC6158189, “A pharmacological probe identifies cystathionine β-synthase as a new negative regulator for ferroptosis” (Cell Death & Disease, 2018)
